Like-named read-outs stand apart in the source and are kept apart here.
What was measured:
[1] = tested on: β-catenin-dependent canonical Wnt pathway; test: Wnt inhibition assay; format: cell-based, human; conditions: for IC50: Wnt inhibition
[2] = tested on: Human embryonic stem cell H9 lines carrying MYH6-mCherry reporters; test: hESC cardiogenesis assay; format: cell-based; conditions: hESCs, dose-response behaviour
[3] = tested on: Human embryonic stem cell H9 lines carrying MYH6-mCherry reporters; conditions: cited from earlier work
[4] = Chemical stability in phosphate buffer; format: physicochemical; conditions: 10 μM, phosphate buffer pH 7.4, up to 30 hours, HPLC
[5] = Homo sapiens, HEK-293T, HEK293T cells

O=C(Nc1cccc2cccnc12)c1ccc(N2C(=O)[C@@H]3[C@H]4CC[C@H](CC4)[C@@H]3C2=O)cc1 [Compound 37, 4-cis-endo-(Hexahydro-1H-4,7-ethanoisoindole-1,3(2H)-dion-2-yl)-N-(quinolin-8-yl) benzamide]
IC50 [1, 5]: > 0.2 µM
fold less potent in Wnt inhibition ([1]; compared with the well-tolerated parent (9/1)): > 10 fold
induction of cardiogenesis (class in words) [2]: functionally inactive as inducers of cardiogenesis

Cc1ccc2nc(NC(=O)CSc3nc4c(c(=O)n3-c3ccc(F)cc3)SCC4)sc2c1 [Compound 3]
maximum efficacious concentration for cardiogenesis ([3]; hESCs): 2.5 µM

N-[4-((3aR,4S,7R,7aS)-1,3,3a,4,7,7a-Hexahydro-1,3-dioxo-4,7-methano-2H-isoindol-2-yl)phenyl]-quinoline-8-carboxamide [Compound 52]
% inhibition (1 μM) ([1]; Wnt inhibition at 1 μM, HEK293T cells): 91 ± 1%
IC50 ([1]; HEK293T cells): 0.119 ± 0.009 µM
induction of cardiogenesis (class in words) [2]: functionally inactive as inducers of cardiogenesis

CC(=O)c1ccccc1NC(=O)[C@H]1CC[C@H](N2C(=O)[C@@H]3[C@@H]4CC[C@@H](C4)[C@@H]3C2=O)CC1 [Compound 28, 4-(cis-endo-1,3-Dioxooctahydro-2H-4,7-methanoisoindol-2-yl)-N-(2-acetylphenyl)-trans-cyclohexyl carboxamide]
induction of cardiogenesis (class in words) [2]: potent stimulators of cardiogenesis
degradation in phosphate buffer [4]: No degradation was observed

COc1ccc(/C=C2/SC(=S)N(CCCC(=O)O)C2=O)cc1OC [Compound 4]
cardiogenic activity (in words) ([3]; at 50 μM): weakly cardiogenic

O=C(Nc1cccc2cccnc12)c1ccc(N2C(=O)[C@@H]3[C@H](C2=O)[C@@H]2C=C[C@H]3C2)cc1 [Compound 1, reference compound]
induction of cardiogenesis (class in words) [2]: dose-dependent induction of cardiogenesis functional activity
cell toxicity (HEK293T cells; human): not toxic to HEK293T cells

O=C1[C@@H]2[C@@H]3CC[C@@H](C3)[C@@H]2C(=O)N1[C@H]1CC[C@H](C(=O)Nc2cccnc2)CC1 [Compound 32, 4-(cis-endo-(1,3-Dioxooctahydro-2H-4,7-methanoisoindol-2-yl))-N-(pyridin-3-yl)-trans-cyclohexyl carboxamide]
IC50 [1, 5]: ~0.1 µM
induction of cardiogenesis (class in words) [2]: functionally inactive as inducers of cardiogenesis
degradation in phosphate buffer [4]: No degradation was observed

Oc1nc(-c2ccc(C(F)(F)F)cc2)nc2c1CSCC2 [Compound 2]
cell toxicity (HEK293T cells): did not induce cell toxicity
fold less potent than 1 and 3 (cardiogenesis) ([3]; hESCs): about 1.5 fold
maximum efficacious concentration for cardiogenesis ([3]; hESCs): 2 µM

O=C1[C@@H]2[C@@H]3CC[C@@H](C3)[C@@H]2C(=O)N1[C@H]1CC[C@H](C(=O)Nc2ccncc2)CC1 [Compound 33, 4-(cis-endo-(1,3-Dioxooctahydro-2H-4,7-methanoisoindol-2-yl))-N-(pyridin-4-yl)-trans-cyclohexyl carboxamide]
IC50 [1, 5]: ~0.1 µM
induction of cardiogenesis (class in words) [2]: functionally inactive as inducers of cardiogenesis

O=C1[C@@H]2[C@@H]3CC[C@@H](C3)[C@@H]2C(=O)N1[C@H]1CC[C@H](C(=O)Nc2ccccn2)CC1 [Compound 31, 4-(cis-endo-(1,3-Dioxooctahydro-2H-4,7-methanoisoindol-2-yl))-N-(pyridin-2-yl)-trans-cyclohexyl carboxamide]
IC50 [1, 5]: ~0.1 µM
induction of cardiogenesis (class in words) [2]: functionally inactive as inducers of cardiogenesis
